From ChEMBL document CHEMBL5465560, “Selectivity Literature for EUbOPEN Chemogenomic Library” (2024) come the findings set out here.

Test [1] deals with Protein kinase C beta type (Homo sapiens, UniProt P05771). The experiment in a line: Selectivity interaction (Kinase panel (Z-LYTE Assay)) EUB0001632a PRKCB. As to conditions: at 10 µM.
Test [2] concerns the target RAF proto-oncogene serine/threonine-protein kinase (Homo sapiens) (UniProt P04049). The experiment in a line: Selectivity interaction (Kinase panel (Eurofins)) EUB0001564a RAF1. As to conditions: at 1 µM.
Test [3] concerns the target Mitogen-activated protein kinase kinase kinase 4 (Homo sapiens) (UniProt Q9Y6R4). The experiment in a line: Selectivity interaction (KinomeScan (DiscoverX)) EUB0001619a MAP3K4. As to conditions: at 1 µM.
The target in test [4] is Myosin light chain kinase, smooth muscle (Homo sapiens, UniProt Q15746). The experiment in a line: Selectivity interaction (KinomeScan (DiscoverX)) EUB0000695a MYLK. As to conditions: at 100 nM.
Test [5] has as its target Tyrosine-protein kinase receptor Tie-1 (Homo sapiens) (UniProt P35590). Nature of the test: Selectivity interaction (KinomeScan (DiscoverX)) EUB0000695a TIE1. The conditions noted are these: at 100 nM.
Test [6] has as its target T1, Serine/threonine-protein kinase Nek2 (Homo sapiens) (UniProt P51955).
T1 sequence (whole entry): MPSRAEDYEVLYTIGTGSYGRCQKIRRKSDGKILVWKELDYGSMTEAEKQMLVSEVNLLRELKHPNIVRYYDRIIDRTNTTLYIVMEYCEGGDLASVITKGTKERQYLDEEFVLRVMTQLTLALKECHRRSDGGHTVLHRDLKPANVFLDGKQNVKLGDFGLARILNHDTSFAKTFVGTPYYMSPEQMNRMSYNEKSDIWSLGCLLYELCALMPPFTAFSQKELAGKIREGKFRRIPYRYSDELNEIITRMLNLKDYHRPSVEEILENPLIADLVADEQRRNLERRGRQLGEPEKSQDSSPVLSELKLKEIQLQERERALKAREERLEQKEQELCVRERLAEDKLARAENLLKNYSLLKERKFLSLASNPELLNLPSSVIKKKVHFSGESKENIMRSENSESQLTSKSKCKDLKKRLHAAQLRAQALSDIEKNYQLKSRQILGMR
Nature of the test: Selectivity interaction (KinomeScan (DiscoverX)) EUB0000607a NEK2. As to conditions: at 10 µM.

Test [7] addresses cAMP-dependent protein kinase catalytic subunit beta (Homo sapiens) (UniProt P22694). As to conditions: at 10 µM.
Test [8] concerns the target Cyclin-dependent kinase 18 (Homo sapiens) (UniProt Q07002). Nature of the test: Selectivity interaction (ActivX KiNativ screen (kinase selectivity in THP-1 cell lysates)) EUB0000639a CDK18. Type of test: subcellular. The conditions noted are these: lysate.
The target in test [9] is Tyrosine-protein kinase Fer (Homo sapiens) (UniProt P16591). The experiment in a line: Selectivity interaction (ActivX KiNativ screen (kinase selectivity in THP-1 cell lysates)) EUB0000639a FER. It counts as subcellular. As to conditions: lysate, at 0.01 µM.
Sequence of Tyrosine-protein kinase Fer (Homo sapiens) (P16591 whole entry, looked up): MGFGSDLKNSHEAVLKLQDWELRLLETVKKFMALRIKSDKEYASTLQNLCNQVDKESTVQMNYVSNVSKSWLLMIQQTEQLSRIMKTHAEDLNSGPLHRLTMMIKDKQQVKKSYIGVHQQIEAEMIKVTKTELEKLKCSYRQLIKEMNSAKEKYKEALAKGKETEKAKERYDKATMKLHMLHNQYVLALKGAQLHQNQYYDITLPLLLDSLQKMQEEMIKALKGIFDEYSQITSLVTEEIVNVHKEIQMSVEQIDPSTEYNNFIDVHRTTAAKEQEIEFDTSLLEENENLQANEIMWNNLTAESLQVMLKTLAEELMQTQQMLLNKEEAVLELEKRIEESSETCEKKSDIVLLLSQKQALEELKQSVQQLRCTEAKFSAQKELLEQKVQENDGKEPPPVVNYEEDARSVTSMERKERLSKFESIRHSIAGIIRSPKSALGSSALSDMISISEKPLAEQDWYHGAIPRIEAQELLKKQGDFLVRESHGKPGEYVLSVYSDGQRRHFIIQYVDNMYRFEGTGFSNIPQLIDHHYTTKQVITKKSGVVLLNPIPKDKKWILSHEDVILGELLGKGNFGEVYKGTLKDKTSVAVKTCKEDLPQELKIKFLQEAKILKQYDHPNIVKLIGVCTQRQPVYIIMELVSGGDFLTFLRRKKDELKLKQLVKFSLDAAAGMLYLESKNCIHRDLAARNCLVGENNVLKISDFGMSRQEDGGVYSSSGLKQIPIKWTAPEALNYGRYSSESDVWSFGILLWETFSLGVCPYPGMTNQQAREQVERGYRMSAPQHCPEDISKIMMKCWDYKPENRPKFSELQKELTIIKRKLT
The target of test [10] is Serine/threonine-protein kinase pim-3 (Homo sapiens) (UniProt Q86V86). The experiment in a line: Selectivity interaction (Kinase panel (DSF assay)) EUB0001559a PIM3. (In general: In DSF a fluorescence change marks the thermal transition of the protein.)
Test [11] deals with Ribosomal protein S6 kinase alpha-4 (Homo sapiens) (UniProt O75676). The experiment in a line: Selectivity interaction (KinomeScan (DiscoverX)) EUB0000045b RPS6KA4. As to conditions: at 1 µM.
Test [12] addresses Serine/threonine-protein kinase SIK3 (Homo sapiens) (UniProt Q9Y2K2). Nature of the test: Selectivity interaction (KinomeScan (DiscoverX)) EUB0000618a SIK3. The conditions noted are these: at 10 µM.
For test [13], the system named is T2, Receptor-type tyrosine-protein kinase FLT3 (Homo sapiens), P36888 [N841I].
T2 sequence (whole entry): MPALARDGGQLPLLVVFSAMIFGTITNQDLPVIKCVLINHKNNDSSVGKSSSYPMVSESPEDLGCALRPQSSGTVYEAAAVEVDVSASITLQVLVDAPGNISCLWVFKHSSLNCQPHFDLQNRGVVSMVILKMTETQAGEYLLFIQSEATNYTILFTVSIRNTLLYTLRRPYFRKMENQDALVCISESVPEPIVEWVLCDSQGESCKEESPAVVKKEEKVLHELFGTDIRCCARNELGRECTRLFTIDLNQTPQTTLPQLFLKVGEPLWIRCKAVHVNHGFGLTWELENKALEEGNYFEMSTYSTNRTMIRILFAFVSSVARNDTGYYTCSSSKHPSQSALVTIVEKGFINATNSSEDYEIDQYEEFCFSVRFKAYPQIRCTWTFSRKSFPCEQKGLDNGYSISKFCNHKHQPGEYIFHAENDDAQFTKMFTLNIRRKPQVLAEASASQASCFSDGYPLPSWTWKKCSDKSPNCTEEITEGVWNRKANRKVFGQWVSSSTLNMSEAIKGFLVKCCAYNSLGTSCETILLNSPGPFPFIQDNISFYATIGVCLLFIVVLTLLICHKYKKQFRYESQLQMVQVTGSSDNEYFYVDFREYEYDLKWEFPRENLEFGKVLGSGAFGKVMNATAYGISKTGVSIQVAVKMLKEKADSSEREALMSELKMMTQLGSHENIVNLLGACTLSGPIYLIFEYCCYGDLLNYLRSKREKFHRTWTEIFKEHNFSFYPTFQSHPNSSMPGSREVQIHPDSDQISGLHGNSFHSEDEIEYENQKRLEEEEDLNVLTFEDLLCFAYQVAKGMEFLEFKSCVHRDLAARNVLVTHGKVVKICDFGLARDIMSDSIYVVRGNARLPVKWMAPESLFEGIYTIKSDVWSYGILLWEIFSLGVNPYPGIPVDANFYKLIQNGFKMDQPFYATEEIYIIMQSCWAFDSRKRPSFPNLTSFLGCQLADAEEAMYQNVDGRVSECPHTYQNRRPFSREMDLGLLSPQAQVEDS
The experiment in a line: Selectivity interaction (KinomeScan (DiscoverX)) EUB0000092b FLT3. The conditions noted are these: at 10 µM.

The target in test [14] is Mitogen-activated protein kinase kinase kinase kinase 1 (Homo sapiens) (UniProt Q92918). Nature of the test: Selectivity interaction (KinomeScan (DiscoverX)) EUB0001079a MAP4K1. The conditions noted are these: at 1 µM.
The target of test [15] is Mitogen-activated protein kinase 9 (Homo sapiens, UniProt P45984). Nature of the test: Selectivity interaction (KinomeScan (DiscoverX)) EUB0000229b MAPK9. As to conditions: at 10 µM.
Sequence of Mitogen-activated protein kinase 9 (P45984 whole entry, looked up): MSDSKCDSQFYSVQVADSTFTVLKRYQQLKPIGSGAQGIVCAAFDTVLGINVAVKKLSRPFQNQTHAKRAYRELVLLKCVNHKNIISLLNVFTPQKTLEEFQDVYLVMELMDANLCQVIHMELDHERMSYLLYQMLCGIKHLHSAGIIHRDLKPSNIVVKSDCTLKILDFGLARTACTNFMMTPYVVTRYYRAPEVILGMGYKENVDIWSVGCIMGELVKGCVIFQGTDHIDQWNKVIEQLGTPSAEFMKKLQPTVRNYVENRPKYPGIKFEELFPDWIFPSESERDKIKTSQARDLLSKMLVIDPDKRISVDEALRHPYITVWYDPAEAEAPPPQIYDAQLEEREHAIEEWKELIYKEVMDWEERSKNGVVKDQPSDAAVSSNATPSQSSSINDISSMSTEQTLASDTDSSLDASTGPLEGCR

The structures appear in SMILES notation.

Sequence of Cyclin-dependent kinase 18 (Homo sapiens) (Q07002 whole entry): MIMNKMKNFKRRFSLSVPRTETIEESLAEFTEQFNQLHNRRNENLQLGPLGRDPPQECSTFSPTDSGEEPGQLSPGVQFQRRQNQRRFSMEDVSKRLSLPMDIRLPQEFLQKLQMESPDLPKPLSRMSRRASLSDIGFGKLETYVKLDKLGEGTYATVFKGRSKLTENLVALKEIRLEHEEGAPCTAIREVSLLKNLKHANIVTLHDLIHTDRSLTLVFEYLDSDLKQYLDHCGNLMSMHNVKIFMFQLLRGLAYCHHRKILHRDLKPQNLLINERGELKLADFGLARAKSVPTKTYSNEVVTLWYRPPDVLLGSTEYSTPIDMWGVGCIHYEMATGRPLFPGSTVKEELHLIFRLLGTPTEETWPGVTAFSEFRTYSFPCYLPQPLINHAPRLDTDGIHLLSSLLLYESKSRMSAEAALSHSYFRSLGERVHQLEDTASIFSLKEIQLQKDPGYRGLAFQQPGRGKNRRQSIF
Sequence of Serine/threonine-protein kinase SIK3 (Homo sapiens) (Q9Y2K2 whole entry, looked up): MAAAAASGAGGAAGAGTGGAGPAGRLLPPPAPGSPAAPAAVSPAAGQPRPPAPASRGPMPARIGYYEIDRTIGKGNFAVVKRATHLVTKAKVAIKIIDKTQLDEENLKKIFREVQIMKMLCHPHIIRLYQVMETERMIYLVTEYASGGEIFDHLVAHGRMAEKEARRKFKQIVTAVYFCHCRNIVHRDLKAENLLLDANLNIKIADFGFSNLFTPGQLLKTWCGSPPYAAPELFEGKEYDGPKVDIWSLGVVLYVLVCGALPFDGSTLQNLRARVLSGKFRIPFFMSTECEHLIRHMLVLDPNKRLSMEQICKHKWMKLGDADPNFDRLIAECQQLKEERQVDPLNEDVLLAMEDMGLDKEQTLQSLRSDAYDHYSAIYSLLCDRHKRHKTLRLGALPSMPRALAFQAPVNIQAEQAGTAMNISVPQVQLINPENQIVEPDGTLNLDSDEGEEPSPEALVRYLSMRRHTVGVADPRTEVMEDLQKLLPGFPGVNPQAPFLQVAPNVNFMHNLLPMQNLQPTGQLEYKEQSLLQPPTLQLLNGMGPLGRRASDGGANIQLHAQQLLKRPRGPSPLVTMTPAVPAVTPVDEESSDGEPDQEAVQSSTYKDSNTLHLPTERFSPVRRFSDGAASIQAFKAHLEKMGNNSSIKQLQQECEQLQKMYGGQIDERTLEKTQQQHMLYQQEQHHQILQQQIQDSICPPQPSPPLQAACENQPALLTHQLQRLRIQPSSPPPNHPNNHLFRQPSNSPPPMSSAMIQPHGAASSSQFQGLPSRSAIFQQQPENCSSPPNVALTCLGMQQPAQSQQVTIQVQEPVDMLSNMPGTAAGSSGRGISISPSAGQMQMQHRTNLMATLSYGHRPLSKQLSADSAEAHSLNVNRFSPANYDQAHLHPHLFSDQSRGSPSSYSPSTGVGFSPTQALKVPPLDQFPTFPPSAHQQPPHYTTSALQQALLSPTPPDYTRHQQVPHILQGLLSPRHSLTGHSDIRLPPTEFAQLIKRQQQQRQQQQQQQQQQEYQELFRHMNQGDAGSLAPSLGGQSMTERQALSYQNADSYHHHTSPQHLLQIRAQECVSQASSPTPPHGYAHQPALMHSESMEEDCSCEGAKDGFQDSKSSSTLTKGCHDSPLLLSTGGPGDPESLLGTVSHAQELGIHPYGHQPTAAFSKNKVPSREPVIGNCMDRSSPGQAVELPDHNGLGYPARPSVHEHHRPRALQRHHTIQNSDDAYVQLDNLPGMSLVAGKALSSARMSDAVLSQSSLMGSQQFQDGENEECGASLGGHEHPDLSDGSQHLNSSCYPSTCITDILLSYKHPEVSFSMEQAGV
Sequence of RAF proto-oncogene serine/threonine-protein kinase (Homo sapiens) (P04049 whole entry): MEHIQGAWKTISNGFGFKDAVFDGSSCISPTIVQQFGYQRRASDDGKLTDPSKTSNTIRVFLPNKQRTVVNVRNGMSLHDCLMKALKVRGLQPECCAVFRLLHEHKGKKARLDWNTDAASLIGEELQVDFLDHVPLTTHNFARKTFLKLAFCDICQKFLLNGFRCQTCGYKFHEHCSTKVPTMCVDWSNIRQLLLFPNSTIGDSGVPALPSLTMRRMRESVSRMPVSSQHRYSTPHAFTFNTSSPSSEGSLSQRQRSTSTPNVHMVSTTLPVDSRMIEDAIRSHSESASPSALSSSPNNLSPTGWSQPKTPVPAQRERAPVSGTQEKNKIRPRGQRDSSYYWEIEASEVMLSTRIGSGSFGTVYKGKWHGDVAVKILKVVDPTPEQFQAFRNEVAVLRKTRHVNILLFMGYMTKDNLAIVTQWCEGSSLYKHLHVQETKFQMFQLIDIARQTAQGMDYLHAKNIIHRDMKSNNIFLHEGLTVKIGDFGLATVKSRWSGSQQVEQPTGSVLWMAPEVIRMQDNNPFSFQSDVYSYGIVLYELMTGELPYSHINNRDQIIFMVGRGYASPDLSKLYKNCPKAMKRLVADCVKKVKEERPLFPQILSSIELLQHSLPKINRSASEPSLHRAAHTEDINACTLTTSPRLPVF
Sequence of Protein kinase C beta type (P05771 2-671 limits assumed): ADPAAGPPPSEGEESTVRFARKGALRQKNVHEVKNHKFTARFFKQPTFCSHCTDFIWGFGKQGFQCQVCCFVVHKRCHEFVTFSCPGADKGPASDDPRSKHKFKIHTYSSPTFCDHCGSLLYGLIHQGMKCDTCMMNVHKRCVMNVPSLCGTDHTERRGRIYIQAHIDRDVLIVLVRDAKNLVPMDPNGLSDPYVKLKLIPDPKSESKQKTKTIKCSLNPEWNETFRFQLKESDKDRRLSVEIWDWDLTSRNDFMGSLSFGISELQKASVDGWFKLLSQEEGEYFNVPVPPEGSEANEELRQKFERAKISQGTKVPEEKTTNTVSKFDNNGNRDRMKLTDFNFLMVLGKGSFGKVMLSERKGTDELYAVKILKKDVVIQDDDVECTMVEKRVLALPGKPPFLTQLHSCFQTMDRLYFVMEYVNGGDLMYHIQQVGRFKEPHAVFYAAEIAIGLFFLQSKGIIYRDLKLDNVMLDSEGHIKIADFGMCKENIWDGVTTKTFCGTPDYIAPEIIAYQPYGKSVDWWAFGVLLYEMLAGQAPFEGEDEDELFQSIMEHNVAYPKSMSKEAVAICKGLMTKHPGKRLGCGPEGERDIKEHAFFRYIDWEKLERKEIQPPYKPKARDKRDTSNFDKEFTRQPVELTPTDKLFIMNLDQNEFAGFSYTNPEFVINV

In [1], `Cn1cc(-n2cnc3c(NCc4nc5cc(Cl)c(Cl)cc5[nH]4)nc(N4CCOCC4)nc32)cn1` came in with a % of control of 15.6%.
Consider `CC[C@@H](Nc1c(C#N)c(-c2ccc(-c3cccc(C)c3F)cc2)nc2cnccc12)C(=O)O` [BAY-091], for which the % of inhibition in test [2] worked out at 36%.
In test [3], `N#Cc1cccc(-c2c[nH]c3ncnc(N4CCOCC4)c23)c1` displayed a % of control of 100%.
Take `Cc1cc(F)c(C(=O)Nc2cccc(-c3nncn3C(C)C)n2)cc1-n1cnc(C2CC2)c1`: the values for the % of control in test [4] and in test [5] were 100% and 87%, respectively.
Regarding `CNC(=O)Nc1ccc(-c2nc(N3CC4CCC(C3)O4)c3cnn(C4CCC5(CC4)OCCO5)c3n2)cc1`, in test [6], the % of control came out at 72%.
As for `Cc1cc([C@@H](C)Nc2ccccc2C(=O)O)c2nc(N3CCOCC3)cc(=O)n2c1` [AZD-6482], the % of control in test [7] is 100%.
For the compound `CC[C@@H]1[C@H](F)C(=O)N[C@@H]1COc1nccc2cc(C(N)=O)c(OC)cc12` [ZIMLOVISERTIB], the % of inhibition in test [8] (at 0.01 µM) was -0.6%; in test [8] (at 0.04 µM), 0.5%; in test [8] (at 0.2 µM), -0.8%; in test [8] (at 1 µM), 7.7%; in [8] (at 5 µM), 41.7%; in test [9] it was -9%.
Turning to `CN(C(=O)c1cnn2cccnc12)c1cc2c(cc1N1CCOCC1)C(=O)N(C[C@@H](F)C(C)(C)O)C2`, the dTM in test [10] was -0.4 K.
Regarding `C=CC(=O)Nc1cc(-n2c(=O)ccc3cnc4ccc(-c5ccc(NS(C)(=O)=O)cc5)cc4c32)ccc1C`, the % of control in test [11] came to 67%.
As for `O[C@H]1CC[C@H](Nc2ncc3nc(Nc4c(F)cc(F)cc4F)n([C@H]4CCOC4)c3n2)CC1`, the % of control in [12] turned out to be 22%.
For `CCC(=O)N1CCN(c2ccc(-n3c(=O)ccc4cnc5ccc(-c6cnc7ccccc7c6)cc5c43)cc2C(F)(F)F)CC1`, the % of control in test [13] is 8.8%.
For the compound `Nc1cnc(N2CCc3cc(S(=O)(=O)Nc4c(F)cc(Cl)cc4F)cc(N4CCCC4=O)c32)nc1` [TP-020n], the % of control in test [14] was 83%.
In [15], `COc1cc(N(C)c2ccnc3ccc(C(F)(F)F)cc23)cc(OC)c1OC` registered a % binding of 80%.
